The text below walks through data of patent US8633207B2, “Quinazoline compounds and methods of use thereof” (Ambit Biosciences Corporation, priority 2010, dated 2014).

As usually defined, the IC50 is the concentration needed to halve the response being measured. The term Kd denotes the equilibrium constant for the complex coming apart. A high value points to weaker binding.

Assay [1] deals with GM-CSFR/JAK2/STAT5 pathway. Briefly: csTF-1 cell-based reporter assay. The settings on record: Homo sapiens; csTF-1 cells, GM-CSF at 2 ng/mL, 4 hours; read-out: Cell Assay: CS TF-1 reporter assay IC50. How it is done: csTF-1 Cell-Based Reporter Assay
csTF-1 cells are derived from the human erythroleukemia cell line that is growth dependent on GM-CSF and has an intact GM-CSFR/JAK2/STAT5 pathway. The cell line contains stably integrated beta-lactamase reporter gene under the control of the […] (irf 1) response element recognized by the activated transcription factor STATS. csTF-1 cells (Invitrogen K1219) were washed with assay media (97% OPTIMEM/0.5% dialyzed FBS/0.1 mM NEAA/1 mM Na pyr/P/S) and seeded in the same media at 5×10^5 cell/mL in T150 flask. After 16 hour incubation, cells were seeded at 2×10^5 cell/well in 50 μl volume, into Costar, clear bottom, 96-well assay plates. Serial dilutions of compounds were added to the plates with final DMSO concentration at 0.5% and GM-CSF at 2 ng/mL and the plates were then incubated at […] and 5% CO2 for 4 hours. The plates were brought to room temperature before adding Substrate Mixture according to manufacturer's protocol (Invitrogen, Catalog #K1085). The assay plates containing the substrate mixture were incubated in the dark at room temperature for 2 hours. Blue and green fluorescence was measured with excitation at 409 nm and emission at 460 nm (for blue) and excitation at 409 nm and emission at 530 nm (for green) using Spectra Max Gemini EM.

The target of a further assay is T1, JAK2 (Homo sapiens, UniProt O60674).
T1 construct: made in house; host or cells: T7 phage display, or HEK-293 cells (alternative)
Briefly: Competition binding assay to determine Kd against JAK kinases: JAK2. The text has this: (§1) Competition Binding Assay to Determine Binding Constants (Kd) of the Compounds Against JAK Kinases
(§2) Competition binding assays used herein were developed, validated and performed as described in Fabian et al., Nature Biotechnology 2005, 23, 329-336. Kinases were produced as fusions to T7 phage (See, Fabian et al. or WO04/015142) or alternatively, the kinases were expressed in HEK-293 cells and subsequently tagged with DNA for PCR detection (See, WO08/005,310). For the binding assays, streptavidin-coated magnetic beads were treated with biotinylated affinity ligands for 30 min at rt to generate affinity resins. The liganded beads were blocked with excess biotin and washed with blocking buffer (SeaBlock (Pierce), 1% BSA, 0.05% Tween 20, 1 mM DTT) to remove unbound ligand and to reduce non-specific binding. Binding reactions were assembled by combining kinase, liganded affinity beads, and test compounds in 1× binding buffer (20% SeaBlock, 0.17×PBS, 0.05% Tween 20, 6 mM DTT). Test compounds were prepared as 100× stocks in DMSO and rapidly diluted into the aqueous environment. DMSO was added to control assays lacking a test compound. Primary screen interactions were performed in polypropylene 384-well plates in a final volume of 34 μL, while Kd determinations were performed in polystyrene 96-well plates in a final volume of 135 μL. The assay plates were incubated at room temperature with shaking for 1 hour, long enough for binding reactions to reach equilibrium, and the affinity beads were washed extensively with wash buffer (1×PBS, 0.05% Tween 20) to remove unbound protein. The beads were then resuspended in elution buffer (1×PBS, 0.05% Tween 20, 2 μM non-biotinylated affinity ligand) and incubated at room temperature with shaking for 30 min. The kinase concentration in the eluates was measured by quantitative PCR. Each kinase was tested individually against each compound. Kds were determined using eleven serial threefold dilutions. A selectivity score, which is a quantitative measure of selectivity of a compound against a panel of enzymes, may be calculated for a compound by dividing the number of enzymes for which a compound meets a set criteria, (for example, a binding constant of 100 nM or less), by the total number of enzymes tested.

In the next assay the target is T2, JAK3 (Homo sapiens, UniProt P52333).
T2 construct: made in house; host or cells: T7 phage display, or HEK-293 cells (alternative)
T2 sequence (P52333 1-1124): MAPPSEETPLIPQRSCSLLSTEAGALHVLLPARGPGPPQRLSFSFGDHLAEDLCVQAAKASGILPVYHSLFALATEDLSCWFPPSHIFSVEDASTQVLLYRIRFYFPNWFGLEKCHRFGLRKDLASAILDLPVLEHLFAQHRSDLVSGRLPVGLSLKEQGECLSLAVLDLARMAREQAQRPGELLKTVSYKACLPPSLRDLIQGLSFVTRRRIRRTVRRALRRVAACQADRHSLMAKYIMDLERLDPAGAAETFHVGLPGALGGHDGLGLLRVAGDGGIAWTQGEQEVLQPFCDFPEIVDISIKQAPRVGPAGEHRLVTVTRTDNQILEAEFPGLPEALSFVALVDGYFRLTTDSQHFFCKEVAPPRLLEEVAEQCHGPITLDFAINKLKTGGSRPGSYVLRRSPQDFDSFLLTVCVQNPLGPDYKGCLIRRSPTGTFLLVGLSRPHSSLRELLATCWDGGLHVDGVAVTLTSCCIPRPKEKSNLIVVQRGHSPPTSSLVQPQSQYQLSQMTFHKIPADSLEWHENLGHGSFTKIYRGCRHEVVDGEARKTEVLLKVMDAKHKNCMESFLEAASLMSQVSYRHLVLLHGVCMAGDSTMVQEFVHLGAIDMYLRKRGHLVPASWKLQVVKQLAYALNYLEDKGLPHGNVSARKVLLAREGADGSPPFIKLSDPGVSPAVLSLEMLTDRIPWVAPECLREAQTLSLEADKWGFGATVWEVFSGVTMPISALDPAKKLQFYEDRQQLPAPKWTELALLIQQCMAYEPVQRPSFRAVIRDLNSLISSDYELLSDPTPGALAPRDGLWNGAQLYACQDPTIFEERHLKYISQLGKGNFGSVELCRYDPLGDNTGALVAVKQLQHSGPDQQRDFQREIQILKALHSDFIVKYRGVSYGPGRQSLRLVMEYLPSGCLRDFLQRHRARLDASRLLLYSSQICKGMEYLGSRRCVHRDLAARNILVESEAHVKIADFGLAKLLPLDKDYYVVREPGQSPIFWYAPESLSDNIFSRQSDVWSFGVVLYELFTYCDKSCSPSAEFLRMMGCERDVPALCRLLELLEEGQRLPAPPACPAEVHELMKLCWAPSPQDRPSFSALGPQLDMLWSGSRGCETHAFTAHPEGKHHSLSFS
Briefly: Competition binding assay to determine Kd against JAK kinases: JAK3.
Excerpt: as §1, §2

In another assay the target is T3, Tyk2 (Homo sapiens, UniProt P29597).
T3 construct: made in house; host or cells: T7 phage display, or HEK-293 cells (alternative)
Briefly: Competition binding assay to determine Kd against JAK kinases: Tyk2.
Excerpt: as §1, §2

T1 sequence (O60674 whole entry): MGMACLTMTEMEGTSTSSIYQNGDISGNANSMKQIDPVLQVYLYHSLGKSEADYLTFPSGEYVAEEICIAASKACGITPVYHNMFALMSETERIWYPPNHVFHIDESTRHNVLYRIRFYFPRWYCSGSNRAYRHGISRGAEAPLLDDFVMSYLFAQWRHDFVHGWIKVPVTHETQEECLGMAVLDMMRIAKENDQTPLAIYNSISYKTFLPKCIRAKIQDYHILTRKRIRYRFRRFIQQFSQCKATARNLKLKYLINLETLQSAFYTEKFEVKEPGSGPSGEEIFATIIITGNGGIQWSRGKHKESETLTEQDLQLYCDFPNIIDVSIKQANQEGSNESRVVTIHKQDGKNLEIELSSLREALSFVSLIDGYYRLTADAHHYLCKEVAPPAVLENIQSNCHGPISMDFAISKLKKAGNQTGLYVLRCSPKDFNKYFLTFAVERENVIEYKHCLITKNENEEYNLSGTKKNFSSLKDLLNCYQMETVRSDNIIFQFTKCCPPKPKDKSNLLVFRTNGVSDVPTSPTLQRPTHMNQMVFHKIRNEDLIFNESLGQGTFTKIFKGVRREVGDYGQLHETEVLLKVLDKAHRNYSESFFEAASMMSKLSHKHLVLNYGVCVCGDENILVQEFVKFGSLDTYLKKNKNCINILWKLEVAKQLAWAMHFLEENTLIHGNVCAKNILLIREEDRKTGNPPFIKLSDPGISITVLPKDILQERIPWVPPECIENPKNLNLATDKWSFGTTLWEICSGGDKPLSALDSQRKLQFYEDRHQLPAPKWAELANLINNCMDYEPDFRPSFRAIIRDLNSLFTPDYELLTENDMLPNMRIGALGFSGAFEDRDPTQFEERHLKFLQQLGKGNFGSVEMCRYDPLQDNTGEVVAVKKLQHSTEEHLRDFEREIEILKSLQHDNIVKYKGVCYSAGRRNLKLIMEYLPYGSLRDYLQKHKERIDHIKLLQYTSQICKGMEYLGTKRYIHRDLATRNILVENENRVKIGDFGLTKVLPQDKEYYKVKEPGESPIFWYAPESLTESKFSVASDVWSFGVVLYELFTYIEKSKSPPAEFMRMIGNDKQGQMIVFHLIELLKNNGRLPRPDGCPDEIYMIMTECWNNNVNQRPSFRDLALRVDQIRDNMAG
T3 sequence (P29597 whole entry): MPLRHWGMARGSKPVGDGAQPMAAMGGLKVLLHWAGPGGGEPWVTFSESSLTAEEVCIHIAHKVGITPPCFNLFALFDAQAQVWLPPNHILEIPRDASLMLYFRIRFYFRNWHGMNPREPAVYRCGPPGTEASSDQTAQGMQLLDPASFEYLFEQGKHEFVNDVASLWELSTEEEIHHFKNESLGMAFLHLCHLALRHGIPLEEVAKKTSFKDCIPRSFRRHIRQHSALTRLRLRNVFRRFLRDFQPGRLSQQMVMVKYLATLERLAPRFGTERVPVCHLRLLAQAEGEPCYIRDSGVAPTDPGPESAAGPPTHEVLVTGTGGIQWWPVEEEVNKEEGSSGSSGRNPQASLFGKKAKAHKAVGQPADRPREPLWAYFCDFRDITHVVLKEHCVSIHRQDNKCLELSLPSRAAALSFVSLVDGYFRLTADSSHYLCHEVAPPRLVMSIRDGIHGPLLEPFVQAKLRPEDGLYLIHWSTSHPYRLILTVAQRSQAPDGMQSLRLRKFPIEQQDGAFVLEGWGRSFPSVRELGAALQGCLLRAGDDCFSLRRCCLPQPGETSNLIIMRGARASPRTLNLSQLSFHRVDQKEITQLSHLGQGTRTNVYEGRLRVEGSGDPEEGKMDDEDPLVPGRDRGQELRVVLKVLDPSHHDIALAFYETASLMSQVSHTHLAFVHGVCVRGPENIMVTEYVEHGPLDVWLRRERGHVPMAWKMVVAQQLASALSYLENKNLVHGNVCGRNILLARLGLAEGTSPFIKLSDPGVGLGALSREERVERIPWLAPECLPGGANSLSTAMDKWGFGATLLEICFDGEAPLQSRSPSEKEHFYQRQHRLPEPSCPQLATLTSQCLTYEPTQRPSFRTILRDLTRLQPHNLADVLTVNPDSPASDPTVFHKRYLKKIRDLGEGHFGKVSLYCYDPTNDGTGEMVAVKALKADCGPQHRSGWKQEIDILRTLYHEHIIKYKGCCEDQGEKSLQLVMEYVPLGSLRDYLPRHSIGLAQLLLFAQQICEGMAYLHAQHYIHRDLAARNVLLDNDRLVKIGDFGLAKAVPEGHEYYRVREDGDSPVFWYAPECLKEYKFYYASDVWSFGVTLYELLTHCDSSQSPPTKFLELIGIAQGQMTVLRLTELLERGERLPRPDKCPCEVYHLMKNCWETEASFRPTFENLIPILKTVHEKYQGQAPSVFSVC

In the case of `Cc1cc(Nc2nc(C(F)(F)c3ccc(F)cn3)nc3c(C)cccc23)n[nH]1` [Example 10, 2-(Difluoro(5-fluoropyridin-2-yl)methyl)-8-methyl-N-(5-methyl-1H-pyrazol-3-yl)quinazolin-4-amine], the IC50 in assay [1] was ≤ 100 nM. The values for the Kd at JAK2, on JAK3 and on Tyk2 were ≤ 1 nM, ≤ 10 nM and ≤ 10 nM, respectively.

As to `COc1cc(Nc2nc(C(F)(F)c3ccc(F)cn3)nc3ccccc23)n[nH]1` [Example 5, 2-(difluoro(5-fluoropyridin-2-yl)methyl)-N-(5-methoxy-1H-pyrazol-3-yl)quinazolin-4-amine], the IC50 in assay [1] is 100 to 500 nM. The figures for the Kd at JAK2, on JAK3 and on Tyk2 were ≤ 1 nM, 10 to 100 nM and ≤ 10 nM, respectively.

For `Cc1cc(Nc2nc(C(F)(F)c3ccc(F)cn3)nc3c(C(F)(F)F)cccc23)n[nH]1` [Example 33, 2-(difluoro(5-fluoropyridin-2-yl)methyl)-N-(5-methyl-1H-pyrazol-3-yl)-8-(trifluoromethyl)quinazolin-4-amine], in assay [1], the concentration for half-maximal inhibition (IC50) was 100 to 500 nM. The Kd at JAK2 was 1 to 10 nM; at JAK3, > 100 nM; on Tyk2, 10 to 100 nM.

Turning to `Cc1cc(Nc2nc(C(F)(F)c3ccc(F)cn3)nc3c(C4CC4)cccc23)n[nH]1` [Example 51, 8-cyclopropyl-2-(difluoro(5-fluoropyridin-2-yl)methyl)-N-(5-methyl-1H-pyrazol-3-yl)quinazolin-4-amine], in assay [1], the IC50 fell in the range of 100 to 500 nM. The Kd at JAK2 is ≤ 1 nM; on JAK3, 10 to 100 nM; on Tyk2, ≤ 10 nM.

`Cc1cc(Nc2nc(C(=O)c3ccc(F)cn3)nc3ccccc23)n[nH]1` [Example 1, (5-fluoropyridin-2-yl)(4-(5-methyl-1H-pyrazol-3-ylamino)quinazolin-2-yl)methanone]: the half-inhibitory concentration (IC50) in assay [1] was ≤ 100 nM. Further, the Kd is 1 to 10 nM at JAK2, 10 to 100 nM on JAK3 and ≤ 10 nM at Tyk2.

Take `COc1cccc2c(Nc3cc(C)[nH]n3)nc(C(F)(F)c3ccc(F)cn3)nc12` [Example 43, 2-(difluoro(5-fluoropyridin-2-yl)methyl)-8-methoxy-N-(5-methyl-1H-pyrazol-3-yl)quinazolin-4-amine]: the IC50 in assay [1] is ≤ 100 nM. Further, the Kd on JAK2 is ≤ 1 nM; at JAK3, ≤ 10 nM; on Tyk2, ≤ 10 nM.

As for `CCc1cccc2c(Nc3cc(C)[nH]n3)nc(C(F)(F)c3ccc(F)cn3)nc12` [Example 36, 2-(difluoro(5-fluoropyridin-2-yl)methyl)-8-ethyl-N-(5-methyl-1H-pyrazol-3-yl)quinazolin-4-amine], the IC50 in assay [1] lay within 100 to 500 nM. Further, the Kd on JAK2 is ≤ 1 nM; at JAK3 it was 10 to 100 nM; at Tyk2 it was ≤ 10 nM.

For `Cc1cc(Nc2nc(C(F)(F)c3ncc(F)cn3)nc3ccccc23)n[nH]1` [Example 3, 2-(difluoro(5-fluoropyrimidin-2-yl)methyl)-N-(5-methyl-1H-pyrazol-3-yl)quinazolin-4-amine], the IC50 in assay [1] is ≤ 100 nM. Besides, the Kd at JAK2 was ≤ 1 nM; on JAK3, 10 to 100 nM; on Tyk2 it was ≤ 10 nM.

On to `Cc1cc(Nc2nc(C(F)(F)c3ccc(F)cn3)nc3cc(C#N)ccc23)n[nH]1` [Example 8, 2-(difluoro(5-fluoropyridin-2-yl)methyl)-4-(5-methyl-1H-pyrazol-3-ylamino)quinazoline-7-carbonitrile], for which, in assay [1], the IC50 was ≤ 100 nM. For the same compound, the Kd on JAK2 was 1 to 10 nM; on JAK3, 10 to 100 nM; at Tyk2 it was ≤ 10 nM.

Regarding `Cc1cc(Nc2nc(C(F)(F)c3ccc(F)cn3)nc3cc(Br)ccc23)n[nH]1` [Example 7, 7-bromo-2-(difluoro(5-fluoropyridin-2-yl)methyl)-N-(5-methyl-1H-pyrazol-3-yl)quinazolin-4-amine], the IC50 in assay [1] is ≤ 100 nM. For the same compound, the Kd on JAK2 is ≤ 1 nM; at JAK3, ≤ 10 nM; at Tyk2, ≤ 10 nM.

As for `Cc1cc(Nc2nc(C(F)(F)c3ccc(F)cn3)nc3c(C(=O)O)cccc23)n[nH]1` [Example 53, 2-(difluoro(5-fluoropyridin-2-yl)methyl)-4-((5-methyl-1H-pyrazol-3-yl)amino)quinazoline-8-carboxylic acid], in assay [1], the IC50 lay within 100 to 500 nM. In addition, the Kd at JAK2 was ≤ 1 nM; at JAK3, ≤ 10 nM; on Tyk2, ≤ 10 nM.

Consider `Cc1cc(Nc2nc(C(F)(F)c3ccc(F)cn3)nc3c(C#N)cccc23)n[nH]1` [Example 35, 2-(difluoro(5-fluoropyridin-2-yl)methyl)-4-((5-methyl-1H-pyrazol-3-yl)amino)quinazoline-8-carbonitrile], for which the 50% inhibitory concentration (IC50) in assay [1] was 100 to 500 nM. In addition, the Kd at JAK2 was ≤ 1 nM; at JAK3, 10 to 100 nM; at Tyk2, ≤ 10 nM.

Regarding `Fc1ccc(C(F)(F)c2nc(Nc3cc[nH]n3)c3ccccc3n2)nc1` [Example 4, 2-(difluoro(5-fluoropyridin-2-yl)methyl)-N-(1H-pyrazol-3-yl)quinazolin-4-amine], the IC50 in assay [1] is ≤ 100 nM. Moreover, the values for the Kd at JAK2, at JAK3 and on Tyk2 were ≤ 1 nM, 10 to 100 nM and ≤ 10 nM, respectively.

As for `Cc1cc(Nc2nc(C(F)(F)c3ccc(F)cn3)nc3c([N+](=O)[O-])cccc23)n[nH]1` [Example 49, 2-(difluoro(5-fluoropyridin-2-yl)methyl)-N-(5-methyl-1H-pyrazol-3-yl)-8-nitroquinazolin-4-amine], the half-maximal inhibitory concentration (IC50) in assay [1] is 100 to 500 nM. Further, the Kd at JAK2 lay in the range of 1 to 10 nM; at JAK3, 10 to 100 nM; on Tyk2 it was 10 to 100 nM.

As for `Cc1cc(Nc2nc(C(F)(F)c3ccc(F)cn3)nc3cc(C(N)=O)ccc23)n[nH]1` [Example 41, 2-(difluoro(5-fluoropyridin-2-yl)methyl)-4-((5-methyl-1H-pyrazol-3-yl)amino)quinazoline-7-carboxamide], in assay [1], the IC50 was > 500 nM. The Kd on JAK2 was ≤ 1 nM; on JAK3, ≤ 10 nM; on Tyk2 it was ≤ 10 nM.
